{"source": "patent US20040209900A1", "about": "“Treatment of lipodystrophy (lipid redistribution syndrome)” (priority 2003, published 2004)", "tested_on": "lipodystrophy", "test": "Observation of lipodystrophy signs and symptoms in patients using pentoxifylline for claudication", "type": "in vivo, human", "description": "It is believed that 80-85% of patients respond favorably with amelioration some or all of their symptoms.", "key": {"[1]": {"conditions": "diabetic HIV positive patients using pentoxifylline for claudication"}}}
{"smiles": "CC(=O)CCCCn1c(=O)c2c(ncn2C)n(C)c1=O", "note": "[pentoxifylline]", "values": [{"measurement": "central fat deposition", "setting": "[1]", "result": "resolved or remitted"}, {"measurement": "facial lines", "setting": "[1]", "result": "decreased and/or disappeared"}, {"measurement": "leg vein prominence", "setting": "[1]", "result": "diminished or disappeared"}, {"measurement": "signs and symptoms of lipodystrophy", "setting": "diabetic HIV positive patients with peripheral vascular disease and intermittent claudication, using pentoxifylline for claudication", "result": "disappeared or were ameliorated"}, {"measurement": "patients responding favorably with amelioration of some or all of their symptoms", "setting": "patients using pentoxifylline, stated as 'It is believed'", "result": "80-85%"}]}
